Measurements reported in patent US20250134104A1, “AGROCHEMICAL ADJUVANTS” (Croda International Plc, priority 2022, published 2025).

Tested on: Botrytis cinerea (ATCC 90479)
Assay: Botrytis cinerea hyphal growth inhibition on PDA agar (colony diameter), adjuvant with or without pyraclostrobin
Format: cell-based
Conditions: for inherent fungicidal activity on their own: adjuvant alone, at any of the concentrations tested; for Fold Change in Growth Inhibition: adjuvant concentration 50 μg/mL (Ia-Ie) or 64 μg/mL (If, Ig), 48 hours at 22° C., relative to fungicide alone; for fold increase in fungicidal activity compared to pyraclostrobin alone: pyraclostrobin at 0.06 μg/mL, against B. cinerea
Protocol: Percent Inhibition-The percent inhibition will be understood to represent the amount the fungicide and/or adjuvant that inhibits the visible growth of the microorganism after 48 hours incubation at 22° C. relative to vehicle treated controls. This is calculated using the following formula:
ØC=diameter of the colony grown on agar supplemented with vehicle (i.e. vehicle treated control), and
ØT=diameter of the colony grown on agar supplemented with fungicide and/or adjuvant formulated in an appropriate vehicle (i.e., solvent such as water C2H5OH, CH3OH, CH3CN, DMSO).
Fold Change—The fold change is a measure of the adjuvant/fungicide combination in inhibiting a microorganism compared to the fungicide alone. This indicates how the adjuvant performs relative to the fungicide alone. This is calculated using the following formula:
where: • INHAF=percent inhibition of fungal growth when treated with fungicide and adjuvant, and • INHF=percent inhibition of fungal growth when treated with fungicide alone.
Botrytis cinerea (ATCC 90479) was cultured on Difco Potato Dextrose Agar (PDA) for 7 days with diurnal UV cycles (12 h UV light and 12 h dark). Spores were harvested in a buffered, sterile saline solution (w/v: 0.9% NaCl with 1% Tween 80) and counted using a haemocytometer. The spore suspension was adjusted to a final concentration of 8.5x10^6 spores/mL to create a standardised inoculum.
To prepare hyphal fragments for adjuvant testing, 8.5x10^4 spores were used to inoculate 10 mL of Difco Potato Dextrose Broth in a 150×25 mm tube. The tube was incubated at 220 RPM, 22° C. for 48 hours.
To create hyphal fragments from the culture, the culture was transferred to a 50 mL plastic conical tube containing approximately 20 sterile 5 mm diameter glass beads and vortexed for 5 min. After vortexing the tube was allowed to stand for 5 min to allow large mycelial clumps to settle and then the top layer containing hyphal fragments was removed and used as inocula for growth inhibition assays.
Fungicides and adjuvants were dissolved in methanol and added to molten PDA (˜50° C.) and then the agar was distributed in the wells of 12 well multiwell plates (1 mL/well). The plates were cooled to room temperature and 10 μL of hyphal inoculum was added to the centre of each well. The plates were incubated at 22° C. for 48 hours and then the colony diameter was measured using a digital caliper. The biological growth control consisted of hyphae and vehicle (0.07% methanol), the negative control was media and vehicle (0.07% methanol).

[1] = with Pyra (pyraclostrobin) 0.0313 μg/mL
[2] = with Pyra (pyraclostrobin) 0.0625 μg/mL

Compound | inherent fungicidal activity on their own | Fold Change in Growth Inhibition [1] | Fold Change in Growth Inhibition [2] | fold increase in fungicidal activity compared to pyraclostrobin alone [fold]
O=C1NC(Cc2ccccc2)C(=O)N2CCCC12 (centres unmarked) [DKP (Ia)] | did not demonstrate any inherent fungicidal activity | 1.32 | 1.15 | –
O=C1CNC(=O)C(Cc2ccccc2)N1 (centres unmarked) [DKP (Ib)] | did not demonstrate any inherent fungicidal activity | 1.14 | 1.45 | –
CN1C(=O)C2CCCN2C(=O)C1Cc1ccccc1 (centres unmarked) [DKP (Ic)] | did not demonstrate any inherent fungicidal activity | 1.23 | 1.52 | 1.52
CN1CC(=O)N(C)C(Cc2ccccc2)C1=O (centres unmarked) [DKP (Id)] | did not demonstrate any inherent fungicidal activity | 1.09 | 1.35 | –
O=C1NCC(=O)N2CCCC12 (centres unmarked) [DKP (Ie)] | did not demonstrate any inherent fungicidal activity | 0.96 | 1.56 | 1.56
O=C1NC(Cc2ccccc2)C(=O)N2CCCCC12 (centres unmarked) [DKP (If), cyclo (-Phe-Pip) diketopiperazine] | did not demonstrate any inherent fungicidal activity | 1.34 | 1.28 | –
O=C1NC(Cc2ccccc2)C(=O)N2CCC=C12 (centres unmarked) [DKP (Ig), cyclo (-Phe-dhPro) diketopiperazine] | did not demonstrate any inherent fungicidal activity | 1.22 | 1.27 | –
